Source: ChEMBL document CHEMBL1201862, “PubChem BioAssay data set” (2004)
Counter-ions that a name gives are not always drawn. Activity calls are given as the source filed them.

How the values were obtained:
[1] = molecular target: G-protein coupled receptor 35 (Homo sapiens, UniProt Q9HC97); experiment: SAR analysis of Antagonists of the GPR35 Receptor using an Image-Based Assay - Set 5. [Related pubchem assays (depositor defined):AID2058, AID2079]; type: functional
[2] = molecular target: T1, G-protein coupled receptor 55 (Homo sapiens, UniProt Q9Y2T6); experiment: SAR Analysis of Selective Antagonists of GPR55 using an Image-Based Assay - Set 3. [Related pubchem assays (depositor defined):AID2058, AID2079]; type: functional
T1 sequence (Q9Y2T6 whole entry): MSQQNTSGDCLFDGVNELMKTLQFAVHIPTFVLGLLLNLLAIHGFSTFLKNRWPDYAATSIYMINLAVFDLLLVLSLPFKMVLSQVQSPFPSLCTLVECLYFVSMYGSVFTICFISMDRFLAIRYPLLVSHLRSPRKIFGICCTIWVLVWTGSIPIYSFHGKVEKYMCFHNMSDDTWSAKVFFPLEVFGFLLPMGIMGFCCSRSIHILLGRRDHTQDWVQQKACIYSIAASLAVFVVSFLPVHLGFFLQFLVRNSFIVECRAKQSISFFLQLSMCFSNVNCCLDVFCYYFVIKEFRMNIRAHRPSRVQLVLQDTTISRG

[3] = cytotoxicity in NIH/3T3 mouse fibroblasts, dose response, cytotoxicity control, cell-based, mouse embryonic fibroblasts, dry powder, set 2 (AID 493247); type: functional; settings: Fibroblast
Trypanosoma cruzi = experiment: growth inhibition of intracellular Trypanosoma cruzi, dose response, cell-based, plate reader, dry powder, set 3 (AID 493197); type: functional
[4] = molecular target: T2, Small ubiquitin-related modifier 1 (Homo sapiens, UniProt P63165); experiment: inhibitors of SUMO1 partner interactions, dose response, biochemical, FRET (AID 624383); type: functional; settings: read-out: IC50_Mean
T2 sequence (P63165 whole entry): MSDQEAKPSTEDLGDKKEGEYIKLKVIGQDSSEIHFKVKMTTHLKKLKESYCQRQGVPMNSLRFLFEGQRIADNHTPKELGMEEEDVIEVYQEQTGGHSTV

[5] = Luminescence Cell Based Dose Confirmation HTS to Identify Activators of 5'UTR Stem-Loop Driven Alpha-Synuclein mRNA Translation in H4 Neuroglioblastoma Cells. [Related pubchem assays (depositor defined):AID1813, AID1829]; type: functional; settings: Homo sapiens
[6] = molecular target: T2, Small ubiquitin-related modifier 1; experiment: inhibitors of SUMO1 peptide binding, dose response, biochemical, fluorescence polarization, uHTS hits (AID 624382); type: functional; settings: read-out: IC50_Mean
Cytochrome P450 2D6 = Cytochrome P450 2D6 (Homo sapiens, UniProt P10635);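 note: CYP2D6 member of a cytochrome P450 panel assay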
Cytochrome P450 2D6, sequence (P10635 whole entry, the tested form may be a part): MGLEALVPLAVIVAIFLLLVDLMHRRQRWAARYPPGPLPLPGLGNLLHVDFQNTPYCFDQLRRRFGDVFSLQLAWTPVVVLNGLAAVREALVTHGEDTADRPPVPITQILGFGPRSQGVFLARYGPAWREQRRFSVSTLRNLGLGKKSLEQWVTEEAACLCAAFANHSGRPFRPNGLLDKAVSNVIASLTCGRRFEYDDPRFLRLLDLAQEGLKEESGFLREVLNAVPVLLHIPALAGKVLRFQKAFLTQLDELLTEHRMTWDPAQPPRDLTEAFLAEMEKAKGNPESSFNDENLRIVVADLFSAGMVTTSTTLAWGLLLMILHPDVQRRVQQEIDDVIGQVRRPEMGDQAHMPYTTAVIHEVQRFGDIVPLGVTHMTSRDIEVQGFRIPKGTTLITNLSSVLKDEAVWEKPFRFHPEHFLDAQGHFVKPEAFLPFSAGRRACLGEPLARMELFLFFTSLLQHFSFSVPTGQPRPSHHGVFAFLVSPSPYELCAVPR

[7] = molecular target: 1-acylglycerol-3-phosphate O-acyltransferase ABHD5/Perilipin-5 (Homo sapiens, UniProt Q00G26+Q8WTS1); experiment: Luminescence-based biochemical high throughput dose response assay for inhibitors of the interaction of the lipase co-activator protein, abhydrolase domain containing 5 (ABHD5) with perilipin-5 (MLDP; PLIN5) (2K validation set). [Related pubchem assays (depositor defined):AID493035, AID493241]
1-acylglycerol-3-phosphate O-acyltransferase ABHD5/Perilipin-5, sequence (Q00G26 whole entry, the tested form may be a part): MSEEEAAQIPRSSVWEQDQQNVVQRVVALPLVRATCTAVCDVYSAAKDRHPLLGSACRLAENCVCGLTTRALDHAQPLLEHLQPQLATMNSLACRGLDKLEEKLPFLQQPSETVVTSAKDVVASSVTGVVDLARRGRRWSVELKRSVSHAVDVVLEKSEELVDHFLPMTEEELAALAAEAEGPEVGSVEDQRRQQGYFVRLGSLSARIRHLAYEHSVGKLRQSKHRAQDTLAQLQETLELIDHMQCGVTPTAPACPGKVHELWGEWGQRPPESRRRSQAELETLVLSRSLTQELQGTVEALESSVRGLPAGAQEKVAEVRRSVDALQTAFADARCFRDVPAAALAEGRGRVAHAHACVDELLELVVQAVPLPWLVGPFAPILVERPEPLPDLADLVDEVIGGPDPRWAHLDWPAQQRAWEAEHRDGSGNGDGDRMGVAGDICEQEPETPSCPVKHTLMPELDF
1-acylglycerol-3-phosphate O-acyltransferase ABHD5/Perilipin-5, sequence (Q8WTS1 whole entry, the tested form may be a part): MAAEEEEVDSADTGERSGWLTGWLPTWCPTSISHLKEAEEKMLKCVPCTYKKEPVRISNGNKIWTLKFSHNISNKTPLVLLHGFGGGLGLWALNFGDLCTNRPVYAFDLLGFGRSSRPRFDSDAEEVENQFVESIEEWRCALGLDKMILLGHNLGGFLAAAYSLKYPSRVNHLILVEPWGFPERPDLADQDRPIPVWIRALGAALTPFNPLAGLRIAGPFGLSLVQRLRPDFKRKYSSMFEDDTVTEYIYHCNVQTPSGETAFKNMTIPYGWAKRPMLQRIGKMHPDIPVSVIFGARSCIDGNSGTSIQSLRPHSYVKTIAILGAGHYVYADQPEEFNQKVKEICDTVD

[8] = molecular target: T3, Mannose-6-phosphate isomerase (Homo sapiens, UniProt P34949); experiment: human PMI inhibitors, high substrate, primary screen, biochemical, fluorescence intensity, high mannose 6-phosphate (AID 1220)
T3 sequence (P34949 whole entry): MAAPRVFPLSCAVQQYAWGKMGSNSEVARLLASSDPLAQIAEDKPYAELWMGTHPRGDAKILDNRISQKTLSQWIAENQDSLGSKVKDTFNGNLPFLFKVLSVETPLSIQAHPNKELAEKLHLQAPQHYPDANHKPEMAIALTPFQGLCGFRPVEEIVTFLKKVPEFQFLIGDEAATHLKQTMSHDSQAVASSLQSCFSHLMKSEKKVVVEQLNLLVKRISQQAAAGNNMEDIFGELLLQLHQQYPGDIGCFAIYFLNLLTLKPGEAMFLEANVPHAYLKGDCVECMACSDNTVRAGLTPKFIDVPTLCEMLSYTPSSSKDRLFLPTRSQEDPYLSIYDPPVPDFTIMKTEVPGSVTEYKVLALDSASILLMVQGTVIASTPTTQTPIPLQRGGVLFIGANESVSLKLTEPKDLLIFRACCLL

Cytochrome P450 2C9 = Cytochrome P450 2C9 (Homo sapiens, UniProt P11712)
Cytochrome P450 2C9, sequence (P11712 whole entry, the tested form may be a part): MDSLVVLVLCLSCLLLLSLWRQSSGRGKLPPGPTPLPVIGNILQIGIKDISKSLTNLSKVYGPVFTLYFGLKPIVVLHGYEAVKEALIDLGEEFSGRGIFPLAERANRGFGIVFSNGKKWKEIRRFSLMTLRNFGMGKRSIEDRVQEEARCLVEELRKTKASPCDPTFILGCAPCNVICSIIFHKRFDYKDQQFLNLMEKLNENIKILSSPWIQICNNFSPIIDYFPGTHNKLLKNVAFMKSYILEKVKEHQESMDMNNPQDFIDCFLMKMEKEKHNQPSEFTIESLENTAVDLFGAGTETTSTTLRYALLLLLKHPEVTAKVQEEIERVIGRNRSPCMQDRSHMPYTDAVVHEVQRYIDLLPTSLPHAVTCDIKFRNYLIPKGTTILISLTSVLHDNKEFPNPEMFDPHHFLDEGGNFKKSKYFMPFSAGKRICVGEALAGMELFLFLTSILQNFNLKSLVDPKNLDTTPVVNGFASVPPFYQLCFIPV

Perilipin-1/ABHD5 = Perilipin-1/ABHD5 (Homo sapiens, UniProt O60240+Q8WTS1); experiment: Luminescence-based biochemical high throughput dose response assay for inhibitors of the interaction of the lipase co-activator protein, abhydrolase domain containing 5 (ABHD5) with perilipin-1 (PLIN1) (2K validation set). [Related pubchem assays (depositor defined):AID493027, AID493057]
Perilipin-1/ABHD5, sequence (Q8WTS1 whole entry, the tested form may be a part): as the sequence (Q8WTS1 whole entry, the tested form may be a part) above
Perilipin-1/ABHD5, sequence (O60240 whole entry, the tested form may be a part): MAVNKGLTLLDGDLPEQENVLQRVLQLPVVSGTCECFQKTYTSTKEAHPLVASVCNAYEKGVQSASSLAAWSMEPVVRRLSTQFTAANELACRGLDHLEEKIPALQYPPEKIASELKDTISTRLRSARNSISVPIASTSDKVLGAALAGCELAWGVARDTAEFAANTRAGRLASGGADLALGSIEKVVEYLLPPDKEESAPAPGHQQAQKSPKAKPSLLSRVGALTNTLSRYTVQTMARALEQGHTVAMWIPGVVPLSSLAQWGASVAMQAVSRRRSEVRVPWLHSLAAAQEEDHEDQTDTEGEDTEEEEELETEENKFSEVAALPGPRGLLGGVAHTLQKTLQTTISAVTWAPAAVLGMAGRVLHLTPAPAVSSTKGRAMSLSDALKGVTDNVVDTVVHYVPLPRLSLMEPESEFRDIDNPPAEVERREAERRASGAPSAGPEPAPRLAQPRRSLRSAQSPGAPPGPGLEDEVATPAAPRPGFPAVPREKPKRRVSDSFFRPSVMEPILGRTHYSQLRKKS

[9] = SNU-C1 cell viability reduction, dose response, CellTiter-Glo luminescence (AID 1117323); type: functional, cell-based
[10] = cytotoxicity in HPDE-C7 cells, cell-based, fluorescence, HTS (AID 430); type: functional; settings: Homo sapiens
[11] = Luminescence Cell-Based Dose Response HTS to Identify Inhibitors of 5'UTR Stem-Loop Driven Prion Protein mRNA Translation in H4 Neuroglioblastoma Cells. [Related pubchem assays: 1827 (Project Summary), 1813 (Primary HTS)]; type: functional
[12] = cytotoxicity toward HCT116 cells – cell-based, CellTiter-Glo luminescence, IC50, dose response (AID 1117332); type: functional; settings: HCT-116
[13] = Concentration-dependent survival of SW480 colon cancer line, luminescence detection with CellTiter-Glo, half-maximal inhibitory concentration (AID 1117338); type: functional
[14] = RKO cell viability reduction, dose response, CellTiter-Glo luminescence (AID 1117322); type: functional
[15] = cytotoxicity toward NIH3T3 fibroblasts, dose response, counter-screen, cell-based, ATP luminescence, mouse fibroblasts (AID 2010); type: functional;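 note: cells exposed to compound for about 90 hours before reading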
[16] = CellTiter-Glo luminescent dose response of DLD-1 viability loss (AID 1117352); type: functional
[17] = molecular target: T4, Microphthalmia-associated transcription factor (Homo sapiens, UniProt O75030); experiment: TRPM1 promoter luciferase signal decrease, dose response, MITF inhibitor project, cell-based, SK-MEL-5, cherry-picked, set 3 (AID 493073); type: functional
T4 sequence (O75030 whole entry): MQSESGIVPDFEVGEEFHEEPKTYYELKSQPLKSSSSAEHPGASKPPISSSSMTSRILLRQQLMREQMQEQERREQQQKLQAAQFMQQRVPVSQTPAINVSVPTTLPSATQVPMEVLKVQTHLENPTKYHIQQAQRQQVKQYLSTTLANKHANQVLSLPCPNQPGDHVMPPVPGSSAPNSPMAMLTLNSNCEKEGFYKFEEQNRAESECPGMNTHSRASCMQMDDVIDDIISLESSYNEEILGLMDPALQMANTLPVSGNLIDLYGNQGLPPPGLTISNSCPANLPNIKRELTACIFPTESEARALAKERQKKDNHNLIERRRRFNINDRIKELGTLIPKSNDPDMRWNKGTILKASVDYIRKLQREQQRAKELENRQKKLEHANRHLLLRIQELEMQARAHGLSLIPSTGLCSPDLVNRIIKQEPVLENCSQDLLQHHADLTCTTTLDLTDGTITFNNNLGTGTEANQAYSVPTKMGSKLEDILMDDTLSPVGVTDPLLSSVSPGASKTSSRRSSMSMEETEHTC

[18] = molecular target: T1, G-protein coupled receptor 55; experiment: GPR55 antagonists blocking LPI-driven arrestin recruitment, primary screen, imaging, U2OS, beta-arrestin-GFP, LPI agonist (AID 2013); type: functional;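 note: antagonist potency measured as reduced agonist-driven arrestin aggregation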
[19] = molecular target: T5, Ubiquitin-conjugating enzyme E2 N (Homo sapiens, UniProt P61088); type: functional;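 note: Dose-response confirmation in a TR-FRET assay detecting UBC13-driven polyubiquitin chain formation, inhibition measured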
T5 sequence (P61088 whole entry): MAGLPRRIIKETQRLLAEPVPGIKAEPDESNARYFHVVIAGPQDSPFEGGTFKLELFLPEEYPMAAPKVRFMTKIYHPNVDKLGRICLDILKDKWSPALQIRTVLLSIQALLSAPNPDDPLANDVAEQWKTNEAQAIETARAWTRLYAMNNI

Saccharomyces cerevisiae = experiment: NALP1 inhibitor project selectivity study, Caspase-1/ASC signal blockade IC50 in S. cerevisiae (AID 488863); type: functional, organism-based
INS1 = experiment: beta cell apoptosis inhibitors, cytokine rescue, dose response, luminescence, retest (AID 449756); type: functional, cell-based; settings: Rattus norvegicus;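 note: cell death triggered by IL-1 beta plus TNF-alpha plus IFN-gamma mixture; protective hits raise ATP signal compared with cytokine alone wells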
[20] = cytotoxicity in KRAS-transformed pancreatic duct cells, primary screen, cell-based, fluorescence, HTS (AID 431); type: functional; settings: Homo sapiens;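 note: cell line used: HPDE-C7K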
[21] = inhibitors of SNCA 5'UTR-driven reporter translation, confirmation, H4 neuroglioma cells, luminescence (AID 1988); type: functional, cell-based
[22] = inhibitors of firefly luciferase expression or activity, dose response, H4 neuroglioma cells, luminescence (AID 1990); type: functional, cell-based
[23] = HCT116 cell viability decrease, GSK3B pretreatment – CellTiter-Glo, IC50, dose response (AID 1117339); type: functional; settings: HCT-116
[24] = inhibitors of intracellular T. cruzi replication, confirmation, NIH3T3 host cells, beta-gal luminescence (AID 2044); type: functional, cell-based;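 note: intracellular parasites grown in NIH/3T3 mouse fibroblasts as host cells; luminescent beta-galactosidase reporter signal from transgenic T. cruzi replicating inside host cells; inhibitors lower the luminescence signal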
[25] = cytotoxicity toward Colo320 cells – cell-based, CellTiter-Glo luminescence, IC50, dose response (AID 1117334); type: functional; settings: COLO 320
[26] = cytotoxicity toward HT-29 cells – cell-based, CellTiter-Glo luminescence, IC50, dose response (AID 1117330); type: functional
[27] = molecular target: NACHT, LRR and PYD domains-containing protein 1 (Homo sapiens, UniProt Q9C000); experiment: NALP1 inhibitors in yeast, dose response, luminescent (AID 488860); type: functional
NACHT, LRR and PYD domains-containing protein 1, sequence (Q9C000 1-1212 limits assumed): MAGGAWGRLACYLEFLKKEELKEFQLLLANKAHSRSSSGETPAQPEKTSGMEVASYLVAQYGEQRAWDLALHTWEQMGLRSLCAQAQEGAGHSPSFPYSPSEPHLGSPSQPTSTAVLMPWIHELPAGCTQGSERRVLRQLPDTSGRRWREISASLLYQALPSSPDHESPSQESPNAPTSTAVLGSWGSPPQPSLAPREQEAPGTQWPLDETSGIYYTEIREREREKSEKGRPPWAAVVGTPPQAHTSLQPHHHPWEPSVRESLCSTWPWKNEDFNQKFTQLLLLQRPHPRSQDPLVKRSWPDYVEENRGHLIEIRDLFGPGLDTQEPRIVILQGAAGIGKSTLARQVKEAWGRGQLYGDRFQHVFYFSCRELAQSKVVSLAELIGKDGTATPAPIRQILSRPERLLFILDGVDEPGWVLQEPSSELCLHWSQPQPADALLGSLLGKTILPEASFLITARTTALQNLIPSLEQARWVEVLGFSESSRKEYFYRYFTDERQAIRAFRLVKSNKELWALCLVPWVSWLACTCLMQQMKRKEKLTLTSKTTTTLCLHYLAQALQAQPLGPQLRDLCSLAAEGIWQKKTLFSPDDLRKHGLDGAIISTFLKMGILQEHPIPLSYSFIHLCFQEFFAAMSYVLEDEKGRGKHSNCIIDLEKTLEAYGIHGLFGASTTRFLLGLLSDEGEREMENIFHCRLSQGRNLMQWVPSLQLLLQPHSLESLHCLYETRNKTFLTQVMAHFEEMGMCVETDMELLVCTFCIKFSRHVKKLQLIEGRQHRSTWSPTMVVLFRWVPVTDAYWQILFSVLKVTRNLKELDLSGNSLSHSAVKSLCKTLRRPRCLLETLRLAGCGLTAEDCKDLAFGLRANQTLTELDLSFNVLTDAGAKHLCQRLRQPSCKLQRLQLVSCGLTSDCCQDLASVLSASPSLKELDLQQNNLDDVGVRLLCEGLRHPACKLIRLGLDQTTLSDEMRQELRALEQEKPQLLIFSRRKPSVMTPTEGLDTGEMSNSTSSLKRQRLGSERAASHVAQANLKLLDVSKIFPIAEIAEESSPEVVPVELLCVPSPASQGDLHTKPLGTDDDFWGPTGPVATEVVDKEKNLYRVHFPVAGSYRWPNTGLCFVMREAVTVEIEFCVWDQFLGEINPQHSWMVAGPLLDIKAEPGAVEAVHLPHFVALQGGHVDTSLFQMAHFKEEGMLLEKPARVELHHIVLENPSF
NACHT, LRR and PYD domains-containing protein 1, sequence (Q9C000 1213-1473 limits assumed): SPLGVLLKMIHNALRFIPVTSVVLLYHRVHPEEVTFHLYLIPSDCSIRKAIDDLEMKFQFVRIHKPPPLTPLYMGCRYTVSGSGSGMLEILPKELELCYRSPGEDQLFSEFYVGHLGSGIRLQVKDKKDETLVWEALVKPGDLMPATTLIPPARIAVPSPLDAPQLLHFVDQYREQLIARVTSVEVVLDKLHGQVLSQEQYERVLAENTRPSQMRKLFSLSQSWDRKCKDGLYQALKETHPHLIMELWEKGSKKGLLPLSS

G-protein coupled receptor 35, sequence (Q9HC97 whole entry): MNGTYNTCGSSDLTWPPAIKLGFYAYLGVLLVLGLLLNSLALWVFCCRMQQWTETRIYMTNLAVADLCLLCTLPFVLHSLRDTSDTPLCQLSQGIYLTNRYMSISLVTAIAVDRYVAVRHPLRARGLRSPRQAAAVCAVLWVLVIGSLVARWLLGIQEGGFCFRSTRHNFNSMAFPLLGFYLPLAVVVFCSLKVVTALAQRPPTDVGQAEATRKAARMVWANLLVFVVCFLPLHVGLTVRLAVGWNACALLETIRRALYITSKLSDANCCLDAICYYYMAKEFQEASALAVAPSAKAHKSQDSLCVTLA

Q: For `COC(=O)c1cnn(-c2ccccc2)c1/C=N/NC(N)=S`, which IC50 [1] is on record?
A: The IC50 was > 32 µM (inactive).

Q: What about the IC50 [2] of the same compound?
A: The IC50 was > 32 µM (inactive).

Q: For `CCCNC(=O)C1(C)CCCN(Cc2ccc(Oc3ccccc3)cc2)C1` (stereo not drawn), which AC50 [3] is on record?
A: Its AC50 is 22.9 µM (active).

Q: What about the AC50 (Trypanosoma cruzi) of the same compound?
A: The AC50 was 8.72 µM (active).

Q: For `COc1ccc(Cl)cc1Nc1nnc(-c2ccncc2)s1`, which IC50 [4] is on record?
A: Its IC50 is 4.83 µM (active).

Q: And the EC50 [5]?
A: The EC50 was 73.5 µM (active).

Q: What about the IC50 [6] of the same compound?
A: The IC50 was > 66.6 µM (inactive).

Q: Which results are given for `Nc1cc(-c2ccncc2)c[nH]c1=O` [INAMRINONE]?
A: AC50 (Cytochrome P450 2D6): 12.6 µM (inconclusive); IC50 [7]: 78.8 µM (inactive); IC50 [8]: > 50 µM (not active); AC50 (Cytochrome P450 2C9): 12.6 µM (inconclusive); IC50 (Perilipin-1/ABHD5): > 79.5 µM (inactive)

Q: For `C1CCC(C(CC2CCCCN2)C2CCCCC2)CC1` (stereo not drawn) [PERHEXILINE MALEATE], which IC50 [9] is on record?
A: The IC50 was 2.48 µM (active).

Q: What about the EC50 [10] of the same compound?
A: The EC50 was 11.7 µM (active).

Q: What about the EC50 [11] of the same compound?
A: The EC50 was > 120 µM (not active).

Q: What about the IC50 [12] of the same compound?
A: The IC50 was > 20 µM (inactive).

Q: And the IC50 [13]?
A: The IC50 was 5.76 µM (inactive).

Q: What about the IC50 [14] of the same compound?
A: Its IC50 is 7.85 µM (inactive).

Q: What about the EC50 [15] of the same compound?
A: Its EC50 is 14.2 µM (active).

Q: And the IC50 [16]?
A: Its IC50 is > 20 µM (inactive).

Q: What about the AC50 [17] of the same compound?
A: Its AC50 is 18.8 µM (active).

Q: What about the IC50 [18] of the same compound?
A: The IC50 was 3.19 µM (active).

Q: And the IC50 [19]?
A: Its IC50 is > 20 µM (inactive).

Q: And the IC50 (Saccharomyces cerevisiae)?
A: Its IC50 is 15.9 µM (active).

Q: What about the AC50 (INS1) of the same compound?
A: Its AC50 is 6.42 µM (active).

Q: And the EC50 [20]?
A: Its EC50 is 10.8 µM (active).

Q: And the EC50 [21]?
A: Its EC50 is 8.95 µM (active).

Q: And the EC50 [22]?
A: Its EC50 is > 120 µM (not active).

Q: And the IC50 [23]?
A: Its IC50 is 7.42 µM (inactive).

Q: And the EC50 [24]?
A: The EC50 was 3.13 µM (active).

Q: What about the IC50 [25] of the same compound?
A: The IC50 was 8.86 µM (inactive).

Q: And the IC50 [26]?
A: The IC50 was 6.87 µM (inactive).

Q: What about the IC50 [27] of the same compound?
A: Its IC50 is 12.9 µM (active).
